Laboratory results published in patent US20240124454A1, “TRICYCLIC COMPOUND AND USE THEREOF” (NANJING ZAIMING PHARMACEUTICAL CO., LTD., priority 2020, published 2024).
Where two headings read alike, the source gives them in different places.

What was measured:
MAT2A = MAT2A (Homo sapiens (Human), UniProt P31153); experiment: MAT2A biochemical test (inorganic phosphate colorimetric, PiColorLock); details: read-out: MAT2A inhibitory Activity IC50
How it was run: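 Compounds tested from 10 μM top concentration in 3-fold dilutions, preincubated 120 min at room temperature with MAT2A ([…] final) in Tris/KCl/MgCl2/EDTA/BSA buffer. Reaction started with […] L-methionine and 400 μM ATP, run 90 min at room temperature; phosphate read by PiColorLock after 30 min. IC50 fitted from % inhibition versus no-enzyme and DMSO controls.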

HCT116 MTAP^−/− cells [1] = experiment: Determination of intracellular SAM level by LC-MS/MS; format: cell-based; details: Homo sapiens, HCT-116, 6 h, read-out: SAM production inhibitory activity IC50
Procedure: Test Example 2. Determination of Intracellular SAM Level
The brief introduction of the test principle: After the test MAT2A inhibitor was incubated with cancer cells for a period of time, the cells were lysed with a stop reagent to quench the activity of the MAT2A enzyme. The catalytic product SAM of MAT2A in the cell lysate was quantitatively determined by LC-MS/MS, and thus the activity of MAT2A in the cell was reflected.
(§1) Reference: The experiment referred to the method disclosed in patent WO2018045071.
Material and cell: HCT116 MTAP^−/− cells were purchased from KYinno; fetal bovine serum, McCoy's 5a culture medium, and penicillin-streptomycin were purchased from Gibco Company (U.S.), and 96-well plates were purchased from Corning Company (U.S.).
Cell culture: HCT116 MTAP^−/− cells were cultured with a McCoy's 5a medium containing 10% fetal bovine serum+1% penicillin-streptomycin at 37° C. with 5% CO2. Cells at logarithmic growth phase were available for the experiment.
LC-MS/MS detection: The effect of the compound on the SAM production level in HCT116 MTAP^−/− cell strains was detected by LC-MS/MS. The cells were adjusted to a concentration of 50000 cells per well, seeded on a 96-well plate, and incubated overnight at 37° C. with 5% CO2. In the experimental group, the test compound was dissolved in DMSO, diluted sequentially with DMSO and a culture medium, and transferred to a cell plate at a final concentration of 10 μM, 3-fold dilution. The cells were continuously cultured at 37° C. with 5% CO2 for 6 h. The supernatant was pipetted off. After the cells were washed once with PBS, glacial acetic acid was added to lyse the cells. After the lysate was processed, the SAM concentration was determined by LC-MS/MS analysis.
A negative control group and a positive control group were respectively used as Bottom and Top. The negative control group was added with 10 μM positive compound (compound 072 of Example 51 of patent WO2021139775A1) in the same volume, and other operations were consistent with those of the experimental group. The positive control group was not added with the test compound, only added with DMSO in the same volume, and other operations were consistent with those of the experimental group.
(§2) The % Compound inhibition was calculated and fitted to give the IC50 of the compound.
% Compound inhibition=1−100%×(Signal−Bottom)/(Top−Bottom)
(§3) Signal referred to the signal value of the experimental group, Bottom referred to the average signal value of the negative control group, and Top referred to the average signal value of the positive control group.

HCT116 MTAP^−/− cells [2] = experiment: Cell proliferation inhibition test (Cell-Titer Glo), HCT116 MTAP−/−; format: cell-based, human; details: Homo sapiens, HCT-116, 144 h, 6 days, read-out: HCT116 MTAP−/− Antiproliferative activity IC50
Procedure: (§4) Test Example 3. Cell Proliferation Inhibition Test of Human Colon Cancer HCT116 WT Cells and HCT116 MTAP-1-Cells
(§5) The brief introduction of the test principle: After the test MAT2A inhibitor was incubated with cancer cells for a period of time, the effect of the test compound on cell proliferation was measured using a cell proliferation count method based on the ATP content.
as §1
(§6) Material and cell: HCT116 WT cells and HCT116 MTAP^−/− cells were purchased from KYinno; fetal bovine serum, McCoy's 5a culture medium, and penicillin-streptomycin were purchased from Gibco Company (U.S.), 96-well plates were purchased from Corning Company (U.S.), and the Cell-Titer Glo reagent was purchased from Promega Company (U.S.).
(§7) Cell culture: HCT116 WT cells and HCT116 MTAP^−/− cells were cultured with a McCoy's 5a medium containing 10% fetal bovine serum+1% penicillin-streptomycin at 37° C. with 5% CO2.
(§8) Cells at logarithmic growth phase were available for the experiment.
(§9) Cell proliferation activity test: The Cell-Titer Glo reagent was used to test the compound for inhibitory activity on proliferation of both HCT116 WT and HCT116 MTAP^−/− cell strains. The cells were adjusted to a concentration of 400 cells per well, seeded on a 96-well plate, and incubated overnight at 37° C. with 5% CO2.
(§10) In the experimental group, the test compound was diluted sequentially with DMSO and a culture medium, and transferred to a cell plate at a final concentration of 10 μM, 3-fold dilution. The cells were continuously cultured at 37° C. with 5% CO2 for 6 days. The Cell-Titer Glo reagent was added and the cell activity was measured.
(§11) A negative control group and a positive control group were respectively used as Bottom and Top. The negative control group was not added with cells, only added with the culture medium in the same volume, and other operations were consistent with those of the experimental group. The positive control group was not added with the test compound, only added with DMSO in the same volume, and other operations were consistent with those of the experimental group.
as §2
(§12) % Compound inhibition=1-100%×(Signal−Bottom)/(Top−Bottom).
as §3
(§13) HCT116 MTAP^−/− cells are cells not expressing MTAP protein obtained by site-directed knockout of wild type HCT116 (HCT116 WT) cells by gene knockout. Synthetic lethality will occur due to MAT2A inhibition and the deletion of MTAP, thereby causing tumor cell death. The activity and selectivity of the MAT2A inhibitor can be evaluated by testing the antiproliferative activity of the MAT2A inhibitor on human colon cancer HCT116 MTAP^−/− cells and human colon cancer HCT116 WT.

HCT116 WT cells = experiment: Cell proliferation inhibition test (Cell-Titer Glo), HCT116 WT; format: cell-based, human; details: Homo sapiens, HCT-116, 144 h, 6 days, read-out: HCT116 WT Antiproliferative activity IC50
Procedure: as §4, §5, §1, §6, §7, §8, §9, §10, §11, §2, §12, §3, §13

Sequence of MAT2A (P31153 whole entry): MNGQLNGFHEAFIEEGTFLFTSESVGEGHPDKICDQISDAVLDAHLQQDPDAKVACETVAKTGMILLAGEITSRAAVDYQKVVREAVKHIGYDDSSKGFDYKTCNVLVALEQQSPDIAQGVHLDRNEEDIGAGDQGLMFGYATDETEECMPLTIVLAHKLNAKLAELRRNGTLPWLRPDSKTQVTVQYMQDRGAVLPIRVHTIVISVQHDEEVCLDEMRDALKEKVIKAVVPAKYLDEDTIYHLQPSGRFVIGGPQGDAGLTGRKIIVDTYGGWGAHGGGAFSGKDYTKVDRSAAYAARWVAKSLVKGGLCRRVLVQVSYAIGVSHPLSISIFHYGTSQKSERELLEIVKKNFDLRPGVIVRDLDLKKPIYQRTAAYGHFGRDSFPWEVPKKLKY

IC50 (MAT2A; class symbols) [nM] | IC50 (MAT2A; numeric values) [nM] | IC50 (HCT116 MTAP^−/− cells [1]) [nM] | IC50 (HCT116 MTAP^−/− cells [2]) [nM] | IC50 (HCT116 WT cells) [nM] | Compound
< 100 | 69.3 | 7.4 | 529 | 4770 | Cn1cnc2c(=O)n(-c3ccccc3Cl)c3nc(C(F)(F)F)ccc3c21 [Compound 2, 5-(2-chlorophenyl)-1-methyl-7-(trifluoromethyl)-1,5-dihydro-4H-imidazo[4,5-c][1,8]naphthyridin-4-one]
< 100 | 31.9 | 3.8 | 115 | 816 | O=c1c2nc[nH]c2c2ccc(C(F)(F)F)nc2n1-c1ccccc1Cl [Compound 1, 5-(2-chlorophenyl)-7-(trifluoromethyl)-1,5-dihydro-4H-imidazo[4,5-c][1,8]naphthyridin-4-one]
< 100 | 20.5 | 1.6 | 33 | 237 | Cc1ncccc1-n1c(=O)c2ncn(C)c2c2ccc(C(F)(F)F)nc21 (single isomer, unassigned) [Compound 20-P1, 1-methyl-5-(2-methylpyridin-3-yl)-7-(trifluoromethyl)-1,5-dihydro-4H-imidazo[4,5-c][1,8]naphthyridin-4-one]

Compound | IC50 (MAT2A; class symbols) [nM] | IC50 (MAT2A; numeric values) [nM] | IC50 (HCT116 MTAP^−/− cells [1]) [nM] | IC50 (HCT116 MTAP^−/− cells [2]) [nM] | IC50 (HCT116 WT cells) [nM]
Cc1cccc(-n2c(=O)c3ncn(C)c3c3ccc(C(F)(F)F)nc32)c1Cl [Compound 36, 5-(2-chloro-3-methylphenyl)-1-methyl-7-(trifluoromethyl)-1,5-dihydro-4H-imidazo[4,5-c][1,8]naphthyridin-4-one] | < 100 | 52.6 | 5.6 | 81.5 | 9970
Cn1cnc2c(=O)n(-c3cccc(Cl)c3Cl)c3nc(C(F)(F)F)ccc3c21 [Compound 37, 5-(2,3-dichlorophenyl)-1-methyl-7-(trifluoromethyl)-1,5-dihydro-4H-imidazo[4,5-c][1,8]naphthyridin-4-one] | < 100 | 48.3 | 8.8 | 169 | 9060
